Source: PubChem BioAssay (NCI)
Several values for one entry are separate records, joined by “and”; a condition that tells them apart may be missing. Identical values can stand only once.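 In this assay, cells in 96-well plates receive the compound at five concentrations for 48 hours. Endpoints are linearly interpolated between the surrounding concentrations. GI50 is the concentration that inhibits growth by half. TGI: total growth inhibition.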

These compounds were tested on KM12 colon (assay: DTP human tumour cell line panel, 48 h).

Row | SMILES | GI50 | TGI
1 | O=C1c2cc(Cl)ccc2S(=O)(=O)c2c(NCCCNCCO)nc3ccccc3c21 | 1590 nM | 3300 nM
2 | CC(C)(C)OC(=O)N1CCc2c(sc3ncnc(N/N=C/c4cccc5ccccc45)c23)C1 | 4300 nM | 76900 nM
3 | CC[C@@H]1CN(C)[C@H]2Cc3c([nH]c4ccccc34)C(=O)C[C@H]1C2C(=O)OC (stereo partly specified) | – | > 100000 nM
4 | CCN(CC)c1ccc(/C=C/c2ccc3cc(C)ccc3[n+]2CC)cc1 | 103 nM | 1890 nM
5 | COc1ccc(/C=C/c2nccc3ccccc23)cc1OC | – | > 10000 nM
6 | COC1/C=C\C=C(/C)C(=O)NC2=CC(=O)C(=O)C(=C2O)CC(C)CC(OC)C(O)C(C)/C=C(\C)C1OC(N)=O (stereo unspecified) | – | 5570 nM
7 | O=c1[nH]ncc(Br)c1Br | 2710 nM | 13700 nM

Each compound was assayed on SF-539 CNS (assay: DTP human tumour cell line panel, 48 h).

Row | SMILES | GI50 | TGI
8 | CC[C@]1(O)C[C@@H]2CN(CCc3c([nH]c4ccccc34)[C@@](C(=O)OC)(c3cc4c(cc3OC)N(C)[C@H]3[C@@](O)(C(=O)OC)[C@H](OC(C)=O)[C@]5(CC)C=CCN6CC[C@]43[C@@H]65)C2)C1 | < 10 nM | < 10 nM
9 | N#CSc1c[nH]c2cccc(/C=C/C(=O)/C=C(/C=C/c3cccc4[nH]cc(SC#N)c34)OB(F)F)c12 | 1180 nM | 4270 nM
10 | COc1cc([N+](=O)[O-])cc2c3c(n(C)c12)[C@@]1(C)CCC2c4ccc(OCc5ccccc5)cc4CCC2C1C3 (stereo partly specified) | 66700 nM | > 100000 nM
11 | C=CC(=O)N1CC2(CCN(c3nc(OC4CCN(CCCOC)CC4)nc4c(OCC(F)(F)F)c(-c5c(C)ccc6[nH]ncc56)c(C5CC5)cc34)CC2)C1 | 1650 nM | 3070 nM
12 | CC[C@@H]1C(=O)N(C)c2cnc(Nc3ccc(C(=O)NC4CCN(C)CC4)cc3OC)nc2N1C1CCCC1 | 26.9 nM and 23.8 nM | 352 nM and 583 nM
13 | C=C1C(=O)O[C@H]2[C@H]1CC/C(COC(=O)c1ccc3ccccc3c1)=C\CC[C@@]1(C)O[C@@H]21 | 838 nM | 2230 nM
14 | Nc1nc(Cl)c2ncn(Cc3ccc(C45CC6CC(CC(C6)C4)C5)c(O)c3)c2n1 | 11800 nM | 26700 nM
15 | CC[CH2][Sn]([CH2]CC)([O]C(=O)c1cccnc1SC)[O][Sn]([CH2]CC)([CH2]CC)[O]C(=O)c1cccnc1SC | 468 nM | 1240 nM
16 | CC(C)c1nc(CN(C)C(=O)N[C@H](C(=O)N[C@@H](Cc2ccccc2)C[C@H](O)[C@H](Cc2ccccc2)NC(=O)OCc2cncs2)C(C)C)cs1 | 2330 nM | 49400 nM
17 | CC[C@@]1(O)C(=O)OCc2c1cc1n(c2=O)Cc2c-1nc1cc3c(cc1c2CCl)OCO3 | < 10 nM | < 13.5 nM
18 | N#Cc1ccc(O)c(C2=NCC(c3cccc(Oc4ccccc4)c3)O2)c1 (stereo unspecified) | 1830 nM | 9270 nM
19 | O=C1Nc2c(C(F)(F)F)cccc2[C@]1(c1ccc(O)cc1)c1ccc(OC(F)(F)F)cc1 | 14400 nM | 27600 nM
20 | CC(=O)OC[C@]1(C)C=C2C(=O)[C@](C)(O)C3(CC3)C(C)=C2[C@H]1O | 166 nM | 388 nM
21 | Oc1ccc(NCc2nc3ccccc3[nH]2)cc1 | 51700 nM | > 100000 nM
22 | C[C@]12CC[C@H]3[C@@H](CC=C4C[C@@H](O)CC[C@@]43C)[C@@H]1CC[C@@H]2N(CCO)CCO | – | > 100000 nM
23 | O=C1c2cc(Cl)ccc2S(=O)(=O)c2c(NCCCNCCO)nc3ccccc3c21 | 1600 nM | 3130 nM
24 | CC(C)(C)OC(=O)N1CCc2c(sc3ncnc(N/N=C/c4cccc5ccccc45)c23)C1 | 2720 nM | 8590 nM
25 | CC[C@@H]1CN(C)[C@H]2Cc3c([nH]c4ccccc34)C(=O)C[C@H]1C2C(=O)OC (stereo partly specified) | – | > 100000 nM
26 | CCN(CC)c1ccc(/C=C/c2ccc3cc(C)ccc3[n+]2CC)cc1 | 172 nM | 10900 nM
27 | COc1ccc(/C=C/c2nccc3ccccc23)cc1OC | – | > 10000 nM
28 | COC1/C=C\C=C(/C)C(=O)NC2=CC(=O)C(=O)C(=C2O)CC(C)CC(OC)C(O)C(C)/C=C(\C)C1OC(N)=O (stereo unspecified) | – | 22500 nM
29 | O=c1[nH]ncc(Br)c1Br | 2420 nM | 6310 nM
